Measured values: patent publication US20240415798A1, “COMPOSITIONS AND METHODS FOR TREATING MUCOSITIS” (Enzychem Lifesciences Corporation, priority 2021, published 2024)
Values joined by “and” are separate entries in the source; they are usually repeats but may differ in a detail not shown here. Equal values may be shown once.

Experiments:
[1] = tested on: severe oral mucositis (SOM); test: Phase 2 clinical study of EC-18 in chemoradiation-induced oral mucositis (efficacy); type: in vivo, human
From the text: Human patients of the following characteristics were enrolled: • 18 years or older • Diagnosis of squamous cell carcinoma of the mouth, oropharynx, hypopharynx or nasopharynx • Planned to receive IMRT with daily fractions of 2.0 Gy to 2.2 Gy to a cumulative dose of at least 60 Gy and a maximum of 72 Gy • Radiation fields to include at least two mucositis sites at risk (buccal mucosa, floor of mouth, ventral and lateral tongue, soft palate) in which both sites receive a minimum cumulative dose of 55 Gy • Planned to receive concomitant single agent chemotherapy with cisplatin
EC-18 was administered in varying patients of the treatment group up to 2000 mg/day. Recommended therapy was 500 mg EC-18 capsule administered 4 times throughout the day (e.g., 2 capsules of 500 mg EC-18 administered within 30 mins after taking breakfast and dinner) for a total daily dosage of 2000 mg EC-18 per day. Treatment protocol lasted 7 weeks while radiation therapy and cisplatin therapy continued during the same time.
(§1) For the study, 25 large institutions and hospitals experienced with head and neck cancer treatment were selected • Stage 1: To Evaluate safety and MTD that can be used for Stage 2 iDSMB: Data and Safety Monitoring Board reviewed safety data every 2 weeks and approved for Stage 2 using MTD 2000 mg. • Stage 2: To Evaluate safety and efficacy 7 weeks Active and 4-6 weeks of STFU until OM is resolved. • 2.0-2.2 Gy daily fraction (5 days a week for 7 weeks) and I week (40 mg/m2) or every 3 weeks (100 mg/m2) cisplatin. • Minimum cumulative radiation dose of 55 Gy.
For Efficacy, measured duration of severe oral mucositis (SOM), Incidence of SOM during active treatment.
In Stage 1, we included Stage 1 placebo and 2000 mg patients to Stage 2 for efficacy analysis: • Placebo group: Stage 1 n=2, Stage 2 n=18: Total: 20 • EC-18 2000 mg group: Stage 1 n=5, Stage 2 n=17: Total: 22

[2] = Phase 2 clinical study of EC-18, safety (SAE/AE, MTD); type: in vivo
Experimental: as §1
Stage 1 had 17 total SAEs from a total of 24 patients when Stage 2 had 31 total SAEs from a total of 81 patients. 020-018 patient was determined by investigator to be not related to study drug. Many SAEs occurred due to nausea and vomiting which is a normal symptom for chemo treatment

TGFβ = test: Luminex assay of patient plasma, TGFβ; type: in vivo, human
Experimental: (§2) The plasma sample collected from the blood of patients listed in (Table 1 below) was thawed and centrifuged at 10,000 rpm at 4° C. for 2 minutes, and the supernatant was used for analysis. The supernatant was serially diluted, and 50 μl of the samples were dispensed to each well in a 96-well plate. 5O μl of diluted Microparticle Cocktail (R&D systems) shown in Table 2 was added to each well containing samples and incubated for 2 hours at room temperature on a shaker at 800 rpm. The sample mixture was removed and washed with 100 μl of washing buffer three times. Then, 50 μL of diluted Biotin-Antibody Cocktail (R&D systems) to each well and incubate for 1 hour at RT on the shaker at 800 rpm, followed by three times of washing with wash buffer. 50 μL of diluted […] at RT on the shaker at 800 rpm. After washing with wash buffer three times, 100 μl of wash buffer was added to each well, and the sample's fluorescence intensity was obtained using a Luminex analyzer (Luminex) within 90 mins.
(§3) Standard, control and the sample was quantitatively analyzed using the average value of the results obtained by duplicate test.
(§4) The absolute value of each sample's mean fluorescence intensity (MFI) was obtained by comparing it to the standard curve. The value derived as an under-standard was marked as 0 because it is a trace value outside the detection range of the assay kit.
(§5) The standard curve was obtained by the best fit method in ‘MasterPlex QT 2010 (MiraiBio, Hitachi, CA, USA)’ to calculate the response measured value (MFI) for each standard concentration, which has the highest R square value among each calculation method (Highest value =1.0). The sample's resultant concentration value was calculated based on this standard curve.

IL-1β = test: Luminex assay of patient plasma, IL-1β; type: in vivo, human
Experimental: as §2, §3, §4, §5

[3] = PP population, EC-18 2,000 mg vs placebo
[4] = regardless of the incidence of SOM

For `CCCCC/C=C\C/C=C\CCCCCCCC(=O)OC(COC(C)=O)COC(=O)CCCCCCCCCCCCCCC` (centres unmarked) [EC-18], the “reduction of incidence of SOM compared to placebo population” value ([1]; EC-18 group vs placebo) was “over 35%”, the “therapeutic benefit over the control group” value ([1]; EC-18 up to 2000 mg/day, 7 weeks, with radiation and cisplatin) was “clear therapeutics benefit over the control group” and the “delay of SOM onset compared with placebo” value [1, 3] was 8 days. The “delay of first opioid use vs placebo, mean” value [1, 3] was 6.3 days, the “delay of first opioid use vs placebo, median” value [1, 3] was 11.5 days and the “time to SOM onset” value ([1]; PP population, EC-18 2,000 mg, placebo 43 days) was 51 days. For the same compound, the “incidence of SOM through active treatment period” value ([1]; PP population, baseline through 7-week active treatment period, EC-18 2,000 mg, placebo 65.0%) was 36.4%, the “incidence of SOM (number of subjects)” value ([1]; PP population, baseline through active treatment period and STFU, EC-18 2000 mg (n=22), placebo 14) was 10 and the “incidence of SOM” value ([1]; PP population, baseline through active treatment period and STFU, EC-18 2000 mg, placebo 70.0%) was 45.5% and 45%. For the same compound, the “time to first use of opioid analgesics, median” value ([1]; PP population, evaluable subjects n=8, EC-18 2000 mg, placebo 25.5 days) was 37 days, the “time to first use of opioid analgesics, mean” value ([1]; PP population, evaluable subjects n=8, EC-18 2000 mg, placebo 26 days) was 32.3 days and the “SOM incidence at each week interval” value ([1]; PP population, weekly intervals, vs placebo) was “less than placebo group”. The “incidence of SOM, HPV+” value ([1]; subjects with HPV+, EC-18 2000 mg, placebo 66.7%) was 35.3%, the “incidence of SOM, HPV−” value ([1]; subjects with HPV−, EC-18 2000 mg, placebo 71.4%) was 75% and the “incidence of SOM, tri-weekly cisplatin” value ([1]; subjects with tri-weekly cisplatin, EC-18 2000 mg, placebo 70.0%) was 66.7%. The “incidence of SOM, weekly cisplatin” value ([1]; subjects with weekly cisplatin, EC-18 2000 mg, placebo 70.0%) was 37.5%, the MTD ([2]; Stage 1, daily dose, approved for Stage 2) was 2000 mg and the “serious adverse events (SAE) across study arms” value ([2]; human, in vivo) was “no appreciable differences in SAEs were observed across the study arms”. For the same compound, the “attribution of reported AEs” value ([2]; human, in vivo, 7 weeks) was “all the reported AEs were attributable to chemoradiation treatment and not to EC-18”, the “TGF-β concentration vs placebo, total” value (TGFβ; 7th week of chemoradiation therapy) was “significantly higher than the placebo group” and the “TGF-β concentration vs placebo, HPV-positive” value (TGFβ; HPV-positive population) was “significantly higher compared with placebo”. The “TGF-β concentration vs placebo, with or without SOM” value (TGFβ; [4]) was “higher compared with the placebo group”, the “TGFβ concentration vs placebo, tri-weekly cisplatin” value (TGFβ; sub-population with tri-weekly cisplatin) was “not significantly different” and the “TGF-β concentration vs placebo, cisplatin once a week” value (TGFβ; sub-population with weekly cisplatin) was “significantly higher compared with placebo”. The “IL-1β concentration at 4th and 7th weeks” value (IL-1β; 4th and 7th weeks of treatment) was “under the detection limit”, the “IL-1β concentration vs placebo, HPV+/HPV−” value (IL-1β; regardless of HPV infection state) was “significantly lower compared with the placebo group” and the “IL-1β concentration vs placebo, with or without SOM” value (IL-1β; [4]) was “significantly lower compared with the placebo group”. The “IL-1β concentration vs placebo, weekly or tri-weekly cisplatin” value (IL-1β; regardless of the weekly or tri-weekly cisplatin treatment) was “significantly lower than in the placebo group” and the “IL-1β concentration vs placebo, total” value (IL-1β; throughout seven weeks treatment period) was “significantly lower than the placebo group”.
